Patent US9873717B2, “TRH binding site in human CNS” (THE PROVOST, FELLOWS, FOUNDATION SCHOLARS, AND THE OTHER …, priority 2012, dated 2018)
Entries after “also recorded” stand apart in the source; their conditions may differ. Like-named read-outs stand apart in the source and are kept apart here. Non-standard residues stand in square brackets, D forms with d. Residues, ends and D or L forms follow the SMILES beside them. *: point of attachment. AMC = Cc1cc(=O)oc2cc(N*)ccc12; pGlu = O=C1CC[C@@H](C(=O)O)N1

Tests used:
[1] = tested on: TRH receptors in human CNS tissue (cortical, hippocampal, spinal cord); assay: Competition binding with [3H][3-Me-His2]TRH, human CNS tissue membranes; conditions: for IC50: 5 h at 4° C.
Procedure: Competition binding assays using human tissue prepared from individual donors with no history of neurological disease were carried out essentially as previously described (Kelly et al., 2002; Scalabrino et al., 2007; […] Separation of bound and free ligand was achieved by vacuum filtration through GF/C or GF/B filters, followed by washing with 3×5 ml of ice-cold NaCl or Tris-HCl buffer. The radioactivity retained on the filters was measured by liquid scintillation counting.

[2] = target: T1, TRHR1 (GH4 pituitary cell line, naturally expresses TRHR1) (Rattus norvegicus, UniProt Q01717); conditions: Scalabrino 2007, Hogan 2008; cited from earlier work
T1 construct: a GH4 pituitary cell line, which naturally expresses TRHR1; endogenous in cells; host or cells: GH4 pituitary cell membranes
T1 sequence (Q01717 1-412): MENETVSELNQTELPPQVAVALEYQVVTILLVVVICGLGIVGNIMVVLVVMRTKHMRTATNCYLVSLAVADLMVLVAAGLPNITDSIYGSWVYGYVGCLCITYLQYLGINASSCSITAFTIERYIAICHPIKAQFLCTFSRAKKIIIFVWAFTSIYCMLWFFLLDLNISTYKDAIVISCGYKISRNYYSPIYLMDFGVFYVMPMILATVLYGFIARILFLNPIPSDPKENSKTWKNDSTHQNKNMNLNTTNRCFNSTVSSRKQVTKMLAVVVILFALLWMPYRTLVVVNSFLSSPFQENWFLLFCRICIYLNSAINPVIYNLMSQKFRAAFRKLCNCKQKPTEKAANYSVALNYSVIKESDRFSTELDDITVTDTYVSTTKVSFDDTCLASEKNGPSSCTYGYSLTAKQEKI

[3] = tested on: [^3H][3-Me-His^2]TRH-labelled native TRH receptors in rat hippocampal membranes; conditions: Scalabrino 2007, Hogan 2008; cited from earlier work
[4] = target: [^3H][3-Me-His^2]TRH-labelled native TRH receptors in rat cortical membranes; assay: Displacement of [3H][3-Me-His2]TRH, native rat cortical membranes; assay type: binding; conditions: native rat tissue; N = 3-6
[5] = tested on: TRHR1; assay: Displacement of [3H][3-Me-His2]TRH, membranes from CHO cells transfected with TRHR1; assay type: binding; conditions: N = 2; read-out: IC50, displacement of [^3H][3-Me-His^2]TRH, membranes from Chinese Hamster Ovary cells transfected with TRHR1
[6] = tested on: [^3H][3-Me-His^2]TRH-labelled native TRH receptors in rat cortical membranes; conditions: cited from earlier work
[7] = target: T1, TRHR1 (GH4 pituitary cell line, naturally expresses TRHR1); assay: Displacement of [3H][3-Me-His2]TRH, GH4 cell membranes; assay type: binding; conditions: N = 2; read-out: IC50, displacement of [^3H][3-Me-His^2]TRH, GH4 cell membranes
[8] = tested on: TRHR1; conditions: Scalabrino 2007, Hogan 2008; cited from earlier work
[9] = target: T2, TRH receptors in human pituitary tissue (Homo sapiens, UniProt P34981); assay: Competition binding with [3H][3-Me-His2]TRH, human pituitary tissue membranes
T2 construct: from tissue; host or cells: human pituitary membranes from individual donors
T2 sequence (P34981 1-398): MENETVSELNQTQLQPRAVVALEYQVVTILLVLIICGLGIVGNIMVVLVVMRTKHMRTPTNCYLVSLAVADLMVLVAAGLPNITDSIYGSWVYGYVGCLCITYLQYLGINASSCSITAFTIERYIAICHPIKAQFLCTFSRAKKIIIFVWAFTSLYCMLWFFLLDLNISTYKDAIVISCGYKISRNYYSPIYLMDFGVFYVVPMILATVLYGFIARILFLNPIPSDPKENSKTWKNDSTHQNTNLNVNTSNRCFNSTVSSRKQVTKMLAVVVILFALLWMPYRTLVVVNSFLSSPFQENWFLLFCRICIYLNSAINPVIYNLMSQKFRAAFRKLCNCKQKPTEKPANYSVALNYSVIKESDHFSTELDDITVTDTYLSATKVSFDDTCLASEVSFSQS
Procedure: To investigate the binding of Glp-Asn-Pro-D-Tyr-D-TrpNH2 in human tissue, radioligand binding studies were carried out employing [^3H][3-Me-His^2]TRH to label TRH receptors in cortical, hippocampal, spinal cord and pituitary tissue membranes from human tissue.
Competition binding assays using human tissue prepared from individual donors with no history of neurological disease were carried out essentially as previously described (Kelly et al., 2002; Scalabrino et al., 2007; Hogan et al., 2008) by incubating membrane suspension, [^3H][3-Me-His^2]TRH, and increasing concentrations of peptide for 5 h at 4° C. Non-specific binding (NSB) was determined in the presence of 10 μM TRH. Separation of bound and free ligand was achieved by vacuum filtration through GF/C or GF/B filters, followed by washing with 3×5 ml of ice-cold NaCl or Tris-HCl buffer. The radioactivity retained on the filters was measured by liquid scintillation counting.

[10] = target: T3, TRH receptors in rat pituitary tissue (Rattus norvegicus, UniProt Q01717); conditions: cited from earlier work
T3 construct: host or cells: rat pituitary tissue
T3 sequence (Q01717 1-412): T1 sequence (Q01717 1-412)

[11] = target: T4, TRHR2 (Rattus norvegicus, UniProt A6IZR3); conditions: Scalabrino 2007, Hogan 2008; cited from earlier work
T4 construct: host or cells: CHO cells expressing TRHR2
T4 sequence (A6IZR3 1-352): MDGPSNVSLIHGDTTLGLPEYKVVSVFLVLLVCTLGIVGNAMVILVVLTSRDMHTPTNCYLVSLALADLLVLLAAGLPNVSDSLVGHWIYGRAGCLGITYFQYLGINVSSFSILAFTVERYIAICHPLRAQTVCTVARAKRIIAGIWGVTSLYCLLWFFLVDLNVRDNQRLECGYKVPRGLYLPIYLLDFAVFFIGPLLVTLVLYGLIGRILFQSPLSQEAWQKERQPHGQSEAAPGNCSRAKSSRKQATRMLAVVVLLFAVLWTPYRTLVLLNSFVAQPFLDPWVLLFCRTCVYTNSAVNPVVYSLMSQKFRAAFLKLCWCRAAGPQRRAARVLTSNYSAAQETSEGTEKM

[12] = target: [^3H][3-Me-His^2]TRH-labelled native TRH receptors in rat hippocampal membranes; assay: Displacement of [3H][3-Me-His2]TRH, native rat hippocampal membranes; assay type: binding; conditions: native rat tissue; N = 3-6
[13] = target: TRH receptors in human amygdala; conditions: saturable binding; prior studies; read-out: Kd of radioligand binding in human amygdala; cited from earlier work
[14] = human CNS tissue, read-out: IC50, displacement of [^3H][3-Me-His^2]TRH from CNS tissue

Molecule | Ki [4] [nM] | IC50 [5] [nM] | IC50 [7] [nM] | Ki [12] [nM] | further results
NC(=O)C[C@H](NC(=O)[C@@H]1CCC(=O)N1)C(=O)N1CCC[C@H]1C(=O)N[C@H](Cc1ccc(O)cc1)C(=O)N[C@H](Cc1c[nH]c2ccccc12)C(N)=O [Glp-Asn-Pro-D-Tyr-D-TrpNH2] ([pGlu]NP[dY][dW]-NH2) | 6.8 | > 100000 | > 100000 | 11 | displacement of [^3H][3-Me-His^2]TRH binding from human CNS tissue (in words) ([1]; human CNS tissue): found to displace; IC50 [1, 14]: ~100 nM; binding to TRH receptors in human brain and spinal cord (in words) ([1]; human brain and spinal cord): binds; IC50 ([1]; human hippocampal membranes, read-out: IC50, displacement of [^3H][3-Me-His^2]TRH from hippocampal membranes): ~10 nM; displacement of [^3H][3-Me-His^2]TRH binding from GH4 membranes (in words) [2]: does not displace; affinity for [^3H][3-Me-His^2]TRH-labelled native TRH receptors, rat hippocampal tissue homogenate (in words) [3]: high affinity; affinity for [^3H][3-Me-His^2]TRH-labelled native TRH receptors, rat cortical tissue homogenate (in words) ([6]; Scalabrino 2007, Hogan 2008): high affinity; displacement of [^3H][3-Me-His^2]TRH binding from CHO-TRHR1 membranes (in words) [8]: does not displace; binding to TRH receptors in human pituitary (in words) ([9]; human pituitary): not pituitary; displacement of [^3H][3-Me-His^2]TRH binding from human pituitary (in words) ([9]; human pituitary membranes): does not displace; also recorded: did not displace; displacement of [^3H][3-Me-His^2]TRH binding from native rat pituitary tissue (in words) ([10]; Scalabrino 2007, Hogan 2008): does not displace; displacement of [^3H][3-Me-His^2]TRH binding from CHO-TRHR2 membranes (in words) [11]: does not displace
Cc1cc(=O)oc2cc(NC(=O)[C@@H](Cc3c[nH]c4ccccc34)NC(=O)[C@@H](Cc3ccc(O)cc3)NC(=O)[C@@H]3CCCN3C(=O)[C@H](CC(N)=O)NC(=O)[C@@H]3CCC(=O)N3)ccc12 [Glp-Asn-Pro-DTyr-DTrp-AMC] ([pGlu]NP[dY][dW]-{AMC}) | 1.7 | – | > 100000 | 22 | –
Cc1cc(=O)oc2cc(NC(=O)[C@@H](Cc3c[nH]c4ccccc34)NC(=O)[C@@H](Cc3c[nH]c4ccccc34)NC(=O)[C@@H](Cc3ccc(O)cc3)NC(=O)[C@@H]3CCCN3C(=O)[C@H](CC(N)=O)NC(=O)[C@@H]3CCC(=O)N3)ccc12 [Glp-Asn-Pro-DTyr-DTrp-DTrp-AMC] ([pGlu]NP[dY][dW][dW]-{AMC}) | 25 | – | > 100000 | 30 | –
Cc1cc(=O)oc2cc(NC(=O)[C@H](Cc3c[nH]c4ccccc34)NC(=O)[C@H](Cc3ccc(O)cc3)NC(=O)[C@@H]3CCCN3C(=O)[C@H](CC(N)=O)NC(=O)[C@@H]3CCC(=O)N3)ccc12 [Glp-Asn-Pro-LTyr-LTrp-AMC] ([pGlu]NPYW-{AMC}) | 330 | – | > 100000 | 80 | –
Cc1cc(=O)oc2cc(NC(=O)[C@H](Cc3c[nH]c4ccccc34)NC(=O)[C@H](Cc3c[nH]c4ccccc34)NC(=O)[C@H](Cc3ccc(O)cc3)NC(=O)[C@@H]3CCCN3C(=O)[C@H](CC(N)=O)NC(=O)[C@@H]3CCC(=O)N3)ccc12 [Glp-Asn-Pro-LTyr-LTrp-LTrp-AMC] ([pGlu]NPYWW-{AMC}) | – | – | > 100000 | 8.8 | –
NC(=O)C[C@H](NC(=O)[C@@H]1CCC(=O)N1)C(=O)N1CCC[C@H]1C(=O)N[C@@H](Cc1ccc(O)cc1)C(=O)N[C@@H](Cc1c[nH]c2ccccc12)C(N)=O [Glp-Asn-Pro-LTyr-LTrp-NH2] ([pGlu]NPYW-NH2) | 110 | > 100000 | > 100000 | 120 | –
NC(=O)[C@@H]1CCCN1C(=O)[C@H](Cc1cnc[nH]1)NC(=O)[C@@H]1CCC(=O)N1 [TRH, Thyrotropin releasing hormone, reference compound] | – | – | – | – | IC50 [1, 14]: ~10 nM; Ki ([6]; prior studies, read-out: Ki, competition for [^3H][3-Me-His^2]TRH sites on rat brain cortical membranes): ~25 nM; IC50 ([9]; human pituitary, 5 h at 4° C., read-out: IC50, displacement of [^3H][3-Me-His^2]TRH from pituitary tissue): ~10 nM
Cn1cnc(C[C@H](NC(=O)[C@@H]2CCC(=O)N2)C(=O)N2CCC[C@H]2C(N)=O)c1 [[3-Me-His2]TRH, reference compound] | 74 | 17.5 | 11.2 | 34 | –
[^3H][3-Me-His^2]TRH | – | – | – | – | Kd [13]: 7 to 10 nM; Kd ([6]; single population of high affinity sites, prior studies, read-out: Kd of radioligand binding, rat brain cortical membranes): ~5 nM; Kd ([10]; single population of high-affinity sites, prior studies, read-out: Kd of radioligand binding, rat pituitary tissue): 2.2 nM
